Legend:
NF-kB = test: Quantification of retinal NF-kB activation (Trans-AM transcription factor assay on retinal nuclear extract); format: in vivo, Brown Norway rats
Experimental: (§1) Briefly, CNV membranes were induced in Brown-Norway rats using an Argon/Dye laser while either 17AAG at a total dose of approximately 2 mg or the vehicle (DMSO) was continuously administered. Verterporfin PDT was performed 14 days after CNV induction at a verterporfin dose of 3 mg/m^2, an irradiance of 600 mW/cm^2, and a fluence of 25 J/cm^2. Choroidal neovasculature closure on fluorescein angiograms was assessed 24 hours and 7 days after PDT in a masked fashion using grading standards. Retinal levels of p42/44 MAPK, HIF-1a, NF-kB, VEGF, and endostatin were assessed with a modified enzyme-linked immunoabsorbant assay (“ELISA”) method. […]
(§2) NF-kB and HIF-1a activation was analyzed using the Trans-AM NF-kB p65/NF-kB p50 Transcription Factor Assay Kit (Active Motif North America, Carlsbad, Calif.) according to the manufacturer's instructions. Briefly, two micrograms of a retinal nuclear extract were incubated with an oligonucleotide containing the consensus binding element for each of the transcription factors analyzed bound to a 96-well plate. […] After washes, the plates were subsequently incubated with a secondary antibody conjugated to horseradish peroxidase (1:1000), and the peroxidase reaction was quantified at 450 nm with a reference wavelength of 655 nm. […]

HIF-1a = test: Quantification of retinal HIF-1a activation (Trans-AM transcription factor assay on retinal nuclear extract); format: in vivo, Brown Norway rats
Experimental: as §1, §2

endostatin = test: ELISA for retinal endostatin levels in laser-induced CNV rats; format: in vivo, Brown Norway rats
Experimental: as §1
Each retina was homogenized in 100 μl of solution consisting of 20 mM imidazole hydrochloride, 100 mM KCl, 1 mM MgCl, 1 mM EGTA, 1% Triton, 10 mM NaF, 1 mM sodium molybdynate and 1 mM EDTA supplemented with a cocktail of protease inhibitors (Complete, Roche, Basel, Switzerland) prior to use. Samples were cleared by centrifugation for 10 min. at 13,000 rpm and assessed for protein concentration with the BCA assay (Micro BCA™ Protein Assay Kit, Pierce Co., Rockford, Ill.). […] The reaction was stopped, and the absorption was measured in an ELISA reader at 450 nm. […] The tissue sample concentration was calculated from a standard curve and corrected for protein concentration.

p42/44 MAPK = test: Retinal p42/44 MAPK activation (modified ELISA) in laser-induced CNV rats; format: in vivo, Brown Norway rats
Experimental: (§3) Briefly, CNV membranes were induced in Brown-Norway rats using an Argon/Dye laser while either 17AAG at a total dose of approximately 2 mg or the vehicle (DMSO) was continuously administered. Verterporfin PDT was performed 14 days after CNV induction at a verterporfin dose of 3 mg/m^2, an irradiance of 600 mW/cm^2, and a fluence of 25 J/cm^2. Choroidal neovasculature closure on fluorescein angiograms was assessed 24 hours and 7 days after PDT in a masked fashion using grading standards. Retinal levels of p42/44 MAPK, HIF-1a, NF-kB, VEGF, and endostatin were assessed with a modified enzyme-linked immunoabsorbant assay (“ELISA”) method. […] The combination of 17-allylamino-17-demethoxygeldanamycin treatment and PDT treatment was also synergistic with respect to increased endostatin levels.
To achieve steady drug levels in the circulation of animals, 17AAG (Calbiochem EMD Biosciences, San Diego, Calif.) or the vehicle (DMSO, Sigma, St. Louis, Mo.) was administered by slow intraperitoneal release from osmotic pumps (Alzet, Cupertino, Calif.) instead of repeated intraperitoneal injections. Immediately following the induction of choroidal neovascularization, osmotic pumps (Alzet, Cupertino, Calif.) were implanted as previously described (Poulaki et al. (2002) J. Clin. Invest. 109(6): 805-15). […]

laser-induced CNV = test: Fluorescein angiography grading of leakage and CNV closure in the rat model of laser-induced CNV; format: in vivo, Brown Norway rats
Experimental: as §3
All experiments adhered to the Association for Research in Vision and Ophthalmology Statement for the Use of Animals in Ophthalmic and Vision Research and the guidelines established by the Animal Care Committee of the Massachusetts Eye and Ear Infirmary. Brown Norway rats (Charles River Laboratory, Wilmington, Mass.) were anesthetized via an intramuscular injection of 50 mg/kg of ketamine hydrochloride and 10 mg/kg of xylazine. Pupils were dilated with a topical application of 5% phenylephrine and 0.8% tropicamide. […]
Fluorescein angiography (“FA”) was performed 14 days after the initial laser treatment using a digital fundus camera system (model TRC 501A Topcon, Paramus, N.J.) and standard fluorescein filters to determine if CNV induction was successful. […] All angiograms were evaluated in masked fashion by two independent retina specialists using grading standards regarding severity of CNV (baseline FAs) and CNV closure (24 hours FAs).
PDT with verteporfin was performed on experimental CNV. […] The body surface area of each rat was determined based on their weight according to a nomogram developed by Gilpin (Gilpin et al. (1996) Burns 22(8): 607-1 1). […]

[1] = parameters: unit not given here; details: typical value, general description; cited from earlier work

C=CCNC1=C2C[C@@H](C)C[C@H](OC)[C@H](O)[C@@H](C)/C=C(\C)[C@H](OC(N)=O)[C@@H](OC)/C=C\C=C(/C)C(=O)NC(=CC1=O)C2=O [17AAG, 17-allylamino-17-demethoxygeldanamycin]
retinal levels of NF-kB activation (NF-kB; 17AAG and PDT treated animals, 1 day after PDT, PDT without 17AAG 13.7±0.3): 5.9±0.045 O.D./μg tissue
retinal levels of NF-kB activation (NF-kB; 17AAG and laser treated animals without PDT, P>0.05 vs laser treated 10.12±0.74): 9.54±1.47 O.D./μg tissue
retinal levels of HIF-1a activation (HIF-1a; 17AAG and PDT treated animals, 1 day after PDT, PDT without 17AAG 1.69±0.38): 0.946±0.06 O.D./μg tissue
retinal levels of HIF-1a activation (HIF-1a; 17AAG and laser treated animals without PDT, P>0.05 vs laser treated 1.06±0.1): 1.064±0.136 O.D./μg tissue
retinal levels of endostatin (endostatin; 17AAG and PDT treated animals, 1 day after PDT, statistically significant vs laser treated 15.7±2.8): 258±6 O.D./μg tissue
retinal levels of endostatin (endostatin; 17AAG and laser treated animals without PDT, P>0.05 vs laser treated 15.7±2.8): 32.34±6.11 O.D./μg tissue
retinal levels of p42/44 MAPK activation (p42/44 MAPK; 17AAG and PDT treated animals, 1 day after PDT, PDT without 17AAG 923±45): 417±6 O.D./μg tissue
retinal levels of p42/44 MAPK activation (p42/44 MAPK; 17AAG and laser treated animals without PDT, P>0.05 vs laser treated 603±1): 560±22 O.D./μg tissue
lesions closed one week after PDT treatment (laser-induced CNV; grade IIB lesions, 17AAG in combination with verteporfin PDT, DMSO+PDT control 6 out of 17): 12 out of the 14
lesions closed one day after PDT treatment (laser-induced CNV; grade IIB lesions, 17AAG in combination with verteporfin PDT, DMSO+PDT control 9 out of 17): 12 out of the 14
lesions showing the highest grade (IIB) of leakage (laser-induced CNV; two weeks following CNV induction, 17AAG approx. 2 mg by i.p. osmotic pump, without PDT, P>0.05 vs DMSO (32 out of 53)): 26 out of 47

C=Cc1c(C)c2cc3nc(c(CC(=O)N[C@@H](CC(=O)O)C(=O)O)c4[nH]c(cc5nc(cc1[nH]2)C(C)=C5CC)c(C)c4C(=O)O)[C@@H](CCC(=O)O)[C@@H]3C [N-aspartyl chlorin e6]
time the photosensitizer persists in the target neovasculature [1]: about twenty

CC(=O)[O-].CC(=O)[O-].CCc1c(CC)c2cc3nc(cnc4cc(OCCOCCOCCOC)c(OCCOCCOCCOC)cc4ncc4nc(cc1[n-]2)C(CCCO)=C4C)C(C)=C3CCCO.O.[Lu+3] [lutetium texaphyrin]
time the photosensitizer persists in the target neovasculature [1]: about twenty

benzoporphyrin derivative
time the photosensitizer persists in the target neovasculature [1]: about fifty

From US8658633B2, “Methods and compositions for treating conditions of the eye” (Massachusetts Eye and Ear Infirmary, priority 2006, dated 2014)
